# Source: US20250296959A1, “B7-H3 TARGETING PEPTIDES AND CONSTRUCTS THEREOF” (Mariana Oncology Inc., priority 2024, published 2025)
# Starred links: 1 amine or outer side, 2 acyl side, 3 side chain; linkers in the order of their positions; H or OH if unused. Positions of bridges follow the written chain, without caps; N, C: chain ends. Non-standard residues stand in square brackets, D forms with d. Residues, ends and D or L forms follow the SMILES beside them. Groups on a side chain read outwards from the residue. *: point of attachment. Ala(piperidin-4-yl) = O=C([C@H](CC1CCN([*:3])CC1)N[*:1])[*:2]; DOTA = O=C(O)CN1CCN(CC(=O)O)CCN(CC(=O)*)CCN(CC(=O)O)CC1; Phe(4-NHCONH2) = NC(=O)Nc1ccc(C[C@H](N)C(=O)O)cc1; Trp(5-F) = N[C@@H](Cc1c[nH]c2ccc(F)cc12)C(=O)O; X1 = C[C@@H](c1ccccc1)[C@H](N[*:1])C(=O)[*:2]; Ala(4-THP) = N[C@@H](CC1CCOCC1)C(=O)O; Val(3-OH) = CC(C)(O)[C@H](N)C(=O)O; hPhe = N[C@@H](CCc1ccccc1)C(=O)O; Cha = N[C@@H](CC1CCCCC1)C(=O)O; Chg = N[C@H](C(=O)O)C1CCCCC1; PEG4 = NCCOCCOCCOCCOCCC(=O)O; Tle = CC(C)(C)[C@H](N)C(=O)O; hLeu = CC(C)CC[C@H](N)C(=O)O; NMeS = CN[C@@H](CO)C(=O)O; Nle = CCCC[C@H](N)C(=O)O; Orn = NCCC[C@H](N)C(=O)O
# Target: T1, human 4lg B7-H3 (Homo sapiens, UniProt Q5ZPR3)
# T1 sequence (Q5ZPR3 29-534): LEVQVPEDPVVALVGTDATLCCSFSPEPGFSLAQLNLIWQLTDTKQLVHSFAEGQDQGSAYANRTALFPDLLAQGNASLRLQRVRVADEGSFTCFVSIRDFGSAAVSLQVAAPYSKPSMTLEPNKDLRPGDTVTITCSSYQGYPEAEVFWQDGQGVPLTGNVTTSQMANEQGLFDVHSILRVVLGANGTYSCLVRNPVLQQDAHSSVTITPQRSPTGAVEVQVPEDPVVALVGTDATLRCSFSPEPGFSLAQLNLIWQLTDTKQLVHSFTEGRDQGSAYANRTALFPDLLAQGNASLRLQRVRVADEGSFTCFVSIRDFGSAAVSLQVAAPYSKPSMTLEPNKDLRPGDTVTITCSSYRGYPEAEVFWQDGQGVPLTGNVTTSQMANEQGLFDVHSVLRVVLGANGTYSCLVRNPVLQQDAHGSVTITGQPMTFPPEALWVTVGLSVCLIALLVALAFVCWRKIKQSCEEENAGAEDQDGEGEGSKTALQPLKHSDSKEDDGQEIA
# Test: Affinity determination by surface plasmon resonance (SPR) to 4Ig B7-H3
# Conditions: SPR KD—25° C., 4Ig B7-H3; 25° C. flow cell temperature
row,Kd [nM],Compound
1,100 to 300,"CC(=O)N[C@@H](CCC(C)C)C(=O)N[C@@H](Cc1ccc(O)cc1)C(=O)N[C@H]1CSSC[C@@H](C(=O)N[C@@H](CCc2ccccc2)C(=O)N[C@@H](Cc2ccccc2)C(=O)N[C@H](C(=O)N[C@H](CCCCNC(=O)CN2CCN(CC(=O)O)CCN(CC(=O)O)CCN(CC(=O)O)CC2)C(=O)O)[C@@H](C)O)NC(=O)[C@H](Cc2ccc(O)cc2)NC(=O)[C@H](C(C)C)NC(=O)[C@H](CC(=O)O)NC(=O)[C@H](CC2CCOCC2)NC(=O)[C@H](CCCCN)NC(=O)CNC(=O)[C@H](C(C)(C)C)NC1=O [compound 359, Ac-hLeu-Y-C-Tbg-G-K-ThpA-D-V-Y-C-hF-F-Thr-dLys(DOTA)-COOH] (Ac-[hLeu]YC[Tle]GK[Ala(4-THP)]DVYC[hPhe]FT[dK](DOTA)-OH; disulfide 3-11)"
2,10 to 100,"CC(=O)N[C@@H](CCC(C)C)C(=O)N[C@@H](Cc1ccc(O)cc1)C(=O)N[C@H]1CSSC[C@@H](C(=O)N[C@@H](Cc2c[nH]c3ccc(F)cc23)C(=O)N[C@@H](Cc2ccccc2)C(=O)N(C)[C@@H](CO)C(N)=O)NC(=O)[C@H](Cc2ccc(O)cc2)NC(=O)[C@H](C(C)C)NC(=O)[C@H](CC(=O)O)NC(=O)[C@H](CC2CCCCC2)NC(=O)[C@H](CCCCNC(=O)CN2CCN(CC(=O)O)CCN(CC(=O)O)CCN(CC(=O)O)CC2)NC(=O)CNC(=O)[C@H](C(C)C)NC1=O [compound 233, Ac-hLeu-Y-C-V-G-Lys(DOTA)-CHA-D-V-Y-C-5FW-F-NMeSer-CONH2] (Ac-[hLeu]YCVGK(DOTA)[Cha]DVYC[Trp(5-F)]F[NMeS]-NH2; disulfide 3-11)"
3,1 to 10,"CC(=O)N[C@@H](CCC(C)C)C(=O)N[C@@H](Cc1ccc(O)cc1)C(=O)N[C@H]1CSSC[C@@H](C(=O)N[C@@H](Cc2c[nH]c3ccccc23)C(=O)N[C@@H](Cc2ccccc2)C(=O)N[C@H](C(=O)N[C@H](CCCCNC(=O)CN2CCN(CC(=O)O)CCN(CC(=O)O)CCN(CC(=O)O)CC2)C(N)=O)[C@@H](C)O)NC(=O)[C@H](Cc2ccc(O)cc2)NC(=O)[C@H](C2CCCCC2)NC(=O)[C@H](CC(=O)O)NC(=O)[C@H](Cc2ccc(O)cc2)NC(=O)[C@H](CCCN)NC(=O)CNC(=O)[C@H](C(C)(C)C)NC1=O [compound 138, Ac-hLeu-Y-C-Tbg-G-Orn-Y-D-Chg-Y-C-W-F-Thr-dLys(DOTA)-CONH2] (Ac-[hLeu]YC[Tle]G[Orn]YD[Chg]YCWFT[dK](DOTA)-NH2; disulfide 3-11)"
4,10 to 100,"CCCC[C@H](NC(C)=O)C(=O)N[C@@H](Cc1ccc(O)cc1)C(=O)N[C@H]1CSSC[C@@H](C(=O)N[C@@H](Cc2c[nH]c3ccccc23)C(=O)N[C@@H](Cc2ccccc2)C(=O)N[C@H](C(=O)N[C@H](CCCCNC(=O)CN2CCN(CC(=O)O)CCN(CC(=O)O)CCN(CC(=O)O)CC2)C(N)=O)[C@@H](C)O)NC(=O)[C@H](Cc2ccc(O)cc2)NC(=O)[C@H](C(C)C)NC(=O)[C@H](CC(=O)O)NC(=O)[C@H](Cc2ccc(O)cc2)NC(=O)[C@H](CCCCN)NC(=O)CNC(=O)[C@H](C2CCCCC2)NC1=O [compound 54, Ac-Nle-Y-C-ChG-G-K-Y-D-V-Y-C-W-F-Thr-dLys(DOTA)-CONH2] (Ac-[Nle]YC[Chg]GKYDVYCWFT[dK](DOTA)-NH2; disulfide 3-11)"
5,1 to 10,"CC(=O)N[C@@H](CCC(C)C)C(=O)N[C@@H](Cc1ccc(O)cc1)C(=O)N[C@H]1CSSC[C@@H](C(=O)N[C@@H](Cc2c[nH]c3ccccc23)C(=O)N[C@@H](Cc2ccccc2)C(=O)N2CCC[C@H]2C(=O)N[C@@H](CCCCNC(=O)CN2CCN(CC(=O)O)CCN(CC(=O)O)CCN(CC(=O)O)CC2)C(N)=O)NC(=O)[C@H](Cc2ccc(O)cc2)NC(=O)[C@H](C(C)C)NC(=O)[C@H](CC(=O)O)NC(=O)[C@H](Cc2ccc(O)cc2)NC(=O)[C@H](CCCCN)NC(=O)CNC(=O)[C@H](C(C)C)NC1=O [compound 141, Ac-hLeu-Y-C-V-G-K-Y-D-V-Y-C-W-F-Pro-dLys(DOTA)-CONH2] (Ac-[hLeu]YCVGKYDVYCWFPK(DOTA)-NH2; disulfide 3-11)"

# Same assay, conditions: SPR KD—37° C., 4Ig B7-H3; 37° C. flow cell temperature
row,Kd [nM],Compound
1,< 1,"CC(=O)N[C@@H](CCC(C)C)C(=O)N[C@@H](Cc1ccc(O)cc1)C(=O)N[C@H]1CSSC[C@@H](C(=O)N[C@@H](Cc2c[nH]c3ccc(F)cc23)C(=O)N[C@H](C(=O)N[C@H](C(=O)N[C@H](CCCCNC(=O)CN2CCN(CC(=O)O)CCN(CC(=O)O)CCN(CC(=O)O)CC2)C(=O)N[C@H](CCC(=O)O)C(=O)O)C(C)(C)O)[C@@H](C)c2ccccc2)NC(=O)[C@H](Cc2ccc(NC(N)=O)cc2)NC(=O)[C@H](C(C)C)NC(=O)[C@H](CC(=O)O)NC(=O)[C@H](CC2CCOCC2)NC(=O)[C@H](CC2CCNCC2)NC(=O)CNC(=O)[C@H](C(C)(C)C)NC1=O [compound 508, Ac-hLeu-Y-C-Tbg-G-PipAla-ThpA-D-V-Aph(Cbm)-C-5FW-[(2S, 3S)beta-Me-Phe]-hydroxyVal-dLys(DOTA)-dGlu-COOH] (Ac-[hLeu]YC[Tle]G[Ala(piperidin-4-yl)][Ala(4-THP)]DV[Phe(4-NHCONH2)]C[Trp(5-F)][X1][Val(3-OH)][dK](DOTA)[dE]-OH; disulfide 3-11)"
2,< 1,"CC(=O)N[C@@H](CCC(C)C)C(=O)N[C@@H](Cc1ccc(O)cc1)C(=O)N[C@H]1CSSC[C@@H](C(=O)N[C@@H](Cc2c[nH]c3ccc(F)cc23)C(=O)N[C@@H](Cc2ccccc2)C(=O)N[C@H](C(=O)N[C@H](CO)C(=O)O)C(C)(C)O)NC(=O)[C@H](Cc2ccc(O)cc2)NC(=O)[C@H](C(C)C)NC(=O)[C@H](CC(=O)O)NC(=O)[C@H](CC2CCN(C(=O)CN3CCN(CC(=O)O)CCN(CC(=O)O)CCN(CC(=O)O)CC3)CC2)NC(=O)[C@H](CC2CCNCC2)NC(=O)CNC(=O)[C@H](C(C)(C)C)NC1=O [compound 449, Ac-hLeu-Y-C-Tbg-G-PipAla-Pip(DOTA)Ala-D-V-Y-C-5FW-F-hydroxyVal-dSer-COOH] (Ac-[hLeu]YC[Tle]G[Ala(piperidin-4-yl)][Ala(piperidin-4-yl)](DOTA)DVYC[Trp(5-F)]F[Val(3-OH)][dS]-OH; disulfide 3-11)"
3,1 to 10,"CC(=O)N[C@@H](CCC(C)C)C(=O)N[C@@H](Cc1ccc(O)cc1)C(=O)N[C@H]1CSSC[C@@H](C(=O)N[C@@H](Cc2c[nH]c3ccc(F)cc23)C(=O)N[C@@H](Cc2ccccc2)C(=O)N[C@H](C(=O)N[C@H](CCC(=O)O)C(N)=O)C(C)(C)O)NC(=O)[C@H](Cc2ccc(O)cc2)NC(=O)[C@H](C(C)C)NC(=O)[C@H](CC(=O)O)NC(=O)[C@H](CC2CCOCC2)NC(=O)[C@H](CC2CCN(C(=O)CCOCCOCCOCCOCCNC(=O)CN3CCN(CC(=O)O)CCN(CC(=O)O)CCN(CC(=O)O)CC3)CC2)NC(=O)CNC(=O)[C@H](C(C)(C)C)NC1=O [compound 409, Ac-hLeu-Y-C-Tbg-G-Pip(PEG4-DOTA)Ala-ThpA-D-V-Y-C-5FW-F-hydroxyVal-dGlu-CONH2] (Ac-[hLeu]YC[Tle]G[Ala(piperidin-4-yl)]([PEG4-DOTA])[Ala(4-THP)]DVYC[Trp(5-F)]F[Val(3-OH)][dE]-NH2; disulfide 3-11)"
